These results are taken from patent US20090042951A1, “Blood Pressure Reduction in Salt-Sensitive Hypertension” (priority 2004, published 2009).

The subject of test [1] is spontaneously hypertensive rats (SHR). In words: Telemetric arterial blood pressure monitoring in spontaneously hypertensive rats on 8% NaCl diet. It counts as in vivo, rat. Conditions: single IP injection 10 mg/kg, continuous telemetric recording. The method, then:
(§1) Male Dahl salt-resistant (SR/Jr) rats (250-300 gm, Harlan, Indianapolis, Ind.) were used as controls. Non-salt-sensitive, spontaneously hypertensive rats (SHR) were also employed in some experiments. Each rat was housed individually with a 12 hour light/12 hour dark cycle. The animal use protocols were approved by the Chicago—West Side Veterans Administration Institutional Animal Care and Use Committee.
Arterial blood pressures in unrestrained rats were monitored using a model TA11PA-C20 (Data Science, International, St. Paul, Minn.) implantable telemetric blood pressure monitoring system. The rats were anesthetized using an intraperitoneal injection (50 mg/kg i.p.) of nembutol sodium solution prior to implantation of the monitor. The radio-transmitter catheter was inserted via a midline abdominal incision into the left femoral artery and sutured in place after the tip of the catheter was advanced into the proximal aorta. The catheter was tunneled under the skin and the body of the transmitter was positioned in a subcutaneous pocket near the right flank of the rat. Data acquisition began after normal diurnal blood pressure variability had been reestablished, typically about seven days after surgery. Continuous measurements of pulsatile central aortic blood pressure were recorded by a receiver placed under each rat's cage. […]

In a further test the test system is dogs. The following applies: administration of rolipram, increased cAMP; cited from earlier work.
The subject of test [2] is Dahl salt-sensitive (SS/Jr) rats. In words: Telemetric arterial blood pressure monitoring in Dahl salt-sensitive rats on high salt diet. Format: in vivo, rat. The following applies: for anti-hypertensive activity: found by the methods described herein. The method, then: as §1
Arterial blood pressures in unrestrained rats were monitored using a model TA11PA-C20 (Data Science, International, St. Paul, Minn.) implantable telemetric blood pressure monitoring system. The rats were anesthetized using an intraperitoneal injection (50 mg/kg i.p.) of nembutol sodium solution prior to implantation of the monitor. The radio-transmitter catheter was inserted via a midline abdominal incision into the left femoral artery and sutured in place after the tip of the catheter was advanced into the proximal aorta. The catheter was tunneled under the skin and the body of the transmitter was positioned in a subcutaneous pocket near the right flank of the rat. Data acquisition began after normal diurnal blood pressure variability had been reestablished, typically about seven days after surgery. Continuous measurements of pulsatile central aortic blood pressure were recorded by a receiver placed under each rat's cage.
A baseline arterial blood pressure was established for each rat from continuous measurements made over a two day period prior to the start of an experiment. […] Monitoring continued for four additional days. […] The p-value in both cases is less than 0.05.

A value given as a limit tells only on which side of the number the result lay.

In the case of `COc1ccc(C2CNC(=O)C2)cc1OC1CCCC1` (stereo not drawn) [rolipram, Rolipram], the “effect on arterial blood pressure” value in test [1] is “brief, shallow dip in blood pressure immediately after rolipram injection followed by a gradual decline and recovery of blood pressure”. Further, in the test with dogs, the renal vascular resistance entry is “reduces renal vascular resistance” and the secretion of electrolytes result is recorded as “promotes secretion of electrolytes”. The “duration of drop in blood pressure” value in test [2] (Dahl SS/Jr rat, 8% NaCl diet, single IP injection 10 mg/kg) was over 2 days. Also, the “effect on arterial blood pressure” value in test [2] (Dahl SS/Jr rat, 8% NaCl diet, single IP injection 10 mg/kg, continuous telemetric recording) is “very significant and prolonged (>2 days) drop in blood pressure”. For the same compound, the anti-hypertensive activity result in test [2] was “exhibit anti-hypertensive activity”.
On to `O=c1c2cccnc2n(-c2cccc([N+](=O)[O-])c2)c(=O)n1Cc1ccncc1` [RS25344], for which, in test [2], the anti-hypertensive activity result is “exhibit anti-hypertensive activity”.
On the same count and under the same terms, with `COc1ccc(C(=O)Nc2c(Cl)cncc2Cl)cc1OC1CCCC1` [RP73401] the entry was “exhibit anti-hypertensive activity”; with `CCn1c(=O)c2ccccc2n(-c2cccc([N+](=O)[O-])c2)c1=O` [TVX2706], “exhibit anti-hypertensive activity”.
